The test system of data set [1] is Farage, Karpas422 and VAL cells. The experiment in a line: Cell cycle analysis, Farage, Karpas422, VAL. It counts as cell-based. Particulars: 2 or 6 days. As to the method: Farage, ULA, KARPAS-422, and VAL cells were seeded into 6-well tissue culture dishes in a total volume of 6 mL at densities of 6.25 x10^3, 7.81 x10^3, 6.25 x10^3, and 1.56 x10^3 cells/mL, respectively and incubated overnight at 37 °C and 5% CO2. Cells were then treated with 0.1 µM, 1 µM, or 10 µM GSK137 or 1 µM BI3802 for 2 or 6 days at 37 °C and 5% CO2. Cell cycle analysis was performed using the Click-iT EdU Alexa Fluor 647 Flow Cytometry Assay Kit (Thermo Fisher Scientific, Waltham, MA, USA) following the manufacturer’s instructions, with volumes adjusted for a […] U-bottom plate, and with an approximately 1 hour treatment with 10 μM EdU. After EdU treatment, approximately 2x10^5 cells per well were transferred into a 96-well, non-tissue culture treated U-bottom plate and stained with 6.7µg/ml final FxCycle Violet Stain for 30 minutes incubation at room temperature. Cells were then analyzed on a flow cytometer (BD FACS Canto […] or LSR FortessaTM X-20 (Becton Dickinson, Franklin Lakes, NJ, USA)) with compensation each day using one cell line and data analyzed using FlowJo software (version 10.3). Percentages of cells in each phase of the cell cycle were then averaged across technical replicates.

Data set [2] has as its target T1, human BCL6 BTB-POZ domain (nuclear receptor co-repressor 1 peptide) (Homo sapiens, UniProt P41182, C67R/C84N/C8Q).
T1 construct: BCL6-Flag-6H-Avi (5-129) C8Q, C67R, C84N proteins; Flag (C); 6H (His6) (C); made in house; host or cells: E. coli
The experiment in a line: BCL6 TR-FRET assay, NCOR peptide displacement. It counts as binding. To be noted: NCOR1 peptide, read-out: pIC50 Human TR-FRET nuclear receptor co-repressor 1 (converted). As to the method:
(§1) Human, mouse and rat BCL6-Flag-6H-Avi (5-129) C8Q, C67R, C84N proteins were expressed in E. coli according to standard procedures and purified on Ni-NTA, followed by ion exchange on a Source 30Q column and size exclusion on an Superdex 200 column in a buffer of 20 mM Tris, 250 mM NaCl, 5 mM DTT, 5% glycerol, pH 8.5. All protein purities were estimated to be >90% by SDS-PAGE and the expected masses were confirmed by MS analysis. For TR-FRET assay protein was enzymatically biotinylated by treatment of protein at 100 µM with a 2 fold molar excess of biotin in the presence of 2 mM ATP and 1 µM BirA enzyme in a buffer of 50 mM bicine pH 8.3, 10 mM MgCl2 at 30 °C for 1 hour, followed by extensivedialysis against 50 mM Tris-Cl pH 8.0, 100 mM NaCl, 1 mM DTT using a 3.5 kDa cut-off membrane. Biotinylation was confirmed by MS analysis and concentration was determined by Bradford assay, after which protein was stored in aliquots at -80 °C.
(§2) Acceptor-labelled SMRT peptide H2N-[…](D2)-OH was dissolved in water by mass to give a 500 µM stock solution which was stored at -20 °C. Acceptor-labelled NCOR peptide H2N-[…](Alexa Fluor 647)-OH and acceptor-labelled BCOR peptide H2N-[…](Alexa Fluor 647)-OH were dissolved to a nominal concentration of 1 mM in DMSO, and stock solution concentration was determined by absorbance at 650 nm using an extinction coefficient of 270,000 M-1cm^-1. […]
On the technique in general: In TR-FRET formats the signal depends on donor and acceptor labels being close together.

The next data set has as its target T2, mouse BCL6 and SMRT (Mus musculus, UniProt P41183, C67R/C84N/C8Q).
T2 construct: BCL6-Flag-6H-Avi (5-129) C8Q, C67R, C84N proteins; Flag (C); 6H (His6) (C); made in house; host or cells: E. coli
Nature of the data set: BCL6 TR-FRET assay, mouse BCL6 and SMRT. It counts as binding. The method, then: as §1, §2

Data set [3] is described as follows: GSK in-house kinetic solubility assay (CAD). It counts as physicochemical. Particulars: kinetic from dmso stock, charged aerosol detector.
Data set [4] addresses human serum albumin (HSA) (Homo sapiens, UniProt P02768). Nature of the data set: Binding to human serum albumin. It counts as in vitro ADME.
The nature of another data set: Permeability (Papp). It counts as in vitro ADME. To be noted: not told.

Converted amounts (≈) assume the structure as drawn.

human serum albumin (HSA), sequence (P02768 25-609): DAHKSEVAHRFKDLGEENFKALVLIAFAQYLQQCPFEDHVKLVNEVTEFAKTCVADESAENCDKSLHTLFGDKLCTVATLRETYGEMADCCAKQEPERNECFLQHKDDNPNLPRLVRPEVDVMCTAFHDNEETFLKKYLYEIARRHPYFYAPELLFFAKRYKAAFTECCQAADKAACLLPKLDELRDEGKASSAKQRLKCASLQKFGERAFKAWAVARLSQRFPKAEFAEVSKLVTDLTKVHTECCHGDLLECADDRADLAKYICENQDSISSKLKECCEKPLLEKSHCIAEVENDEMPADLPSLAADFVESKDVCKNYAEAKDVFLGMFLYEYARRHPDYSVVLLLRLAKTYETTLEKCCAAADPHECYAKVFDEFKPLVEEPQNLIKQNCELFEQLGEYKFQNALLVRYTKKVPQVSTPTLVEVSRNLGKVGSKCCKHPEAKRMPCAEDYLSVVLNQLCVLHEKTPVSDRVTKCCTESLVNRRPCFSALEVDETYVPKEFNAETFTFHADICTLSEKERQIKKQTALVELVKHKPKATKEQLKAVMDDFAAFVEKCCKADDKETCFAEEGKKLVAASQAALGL

With `CNC(=O)COc1cc2cc(Nc3nc(N4C[C@H](C)C[C@H](C)C4)ncc3Cl)ccc2n(C)c1=O` [BI3802, reference compound], the “fraction of cells in G1” value in data set [1] is given as “only minor increase in the fraction of cells in G1”.
In general, solubility refers to how much of the substance goes into solution per volume. Higher therefore signals much dissolved substance. Broadly, the Papp is the rate of passage across a membrane or cell layer, normalised by area and donor concentration. A lower Papp goes with poor permeation. With `Cc1ncccc1[C@H]1C[C@@H](c2cccc3nc(N)ccc23)Nc2c(F)cnn21` [GSK137, 5-((5S,7R)-3-Fluoro-7-(2-methylpyridin-3-yl)-4,5,6,7-tetrahydropyrazolo[1,5-a]pyrimidin-5-yl)quinolin-2-amine], the IC50 in data set [2] was 25.1 nM. For the same compound, the “pIC50 Mouse TR-FRET SMRT” value on mouse BCL6 and SMRT came to 7.8. For the same compound, in data set [3], the solubility worked out at 128 µg/mL (≈ 342 µM). In addition, the HSA binding in data set [4] is 91%. The compound also showed a Papp in “Permeability (Papp)” of 8.6 ×10⁻⁶ cm/s. For the same compound, the “fraction of cells in G1” value in data set [1] is on record as “only minor increase in the fraction of cells in G1”.

The values are drawn from paper PMC8350397, “GSK137, a potent small-molecule BCL6 inhibitor with in vivo activity, suppresses antibody responses in mice” (The Journal of Biological Chemistry, 2021).
